Assay results published in US12011421B2, “Curcuphenol compounds for increasing MHC-I expression” (Cava Healthcare Inc., priority 2013, dated 2024).

Tests used:
[1] = tested on: TC1/A9 murine lung tumor cells; experiment: Cell toxicity in A9 cells by PI exclusion and intact cell number; assay type: cell-based; conditions: FIG. 11B
Description: (§1) Curcuphenol and four curcuphenol analogs (see FIG. 10) were synthesized and tested for the ability to increase MHC-I expression in TC1/A9 murine lung tumor cells. Toxicity was also measured by propidium iodide (PI) exclusion.

MHC-I = MHC-I expression in TC1/A9 murine lung tumor cells; assay type: cell-based; conditions: FIG. 11A
Description: as §1

Row | SMILES | toxicity by propidium iodide (PI) exclusion and intact cell number [1] | MHC-I expression relative to controls (MHC-I)
1 | CC(C)=CCC[C@H](C)c1ccc(C)cc1O (stereo in doubt) [curcuphenol, phenol,2-(1,5-dimethyl-4-hexenyl)-5-methyl-, (S)—] | acceptable levels of toxicity | significantly increasing MHC-I expression
2 | CC(C)=CCCCc1ccc(C)cc1O [PC-02/113] | acceptable levels of toxicity | significantly increasing MHC-I expression
